From paper PMC2655231 (Cancer research, 2009) come the findings set out here.

Structures are written as SMILES.

Targets include Aurora B kinase (Xenopus laevis, UniProt Q6DE08); Cdk1/cyclinB (Homo sapiens, UniProt P06493); Cdk5/p25 (Homo sapiens, UniProt Q00535).
Holding throughout (experiment): in vitro radiometric kinase assay
Holding throughout (type): biochemical

The target of the next test is T1, Aurora A kinase (Homo sapiens, UniProt O14965).
T1 sequence (O14965 122-403): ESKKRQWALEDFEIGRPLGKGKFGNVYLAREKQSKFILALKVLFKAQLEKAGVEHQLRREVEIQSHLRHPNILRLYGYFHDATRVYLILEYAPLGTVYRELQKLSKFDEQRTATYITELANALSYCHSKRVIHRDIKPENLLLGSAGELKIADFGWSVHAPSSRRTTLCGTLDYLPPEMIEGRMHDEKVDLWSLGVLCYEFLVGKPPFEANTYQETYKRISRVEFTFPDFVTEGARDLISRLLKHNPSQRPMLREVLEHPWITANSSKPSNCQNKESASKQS
T1 sequence (Q9ULW0 1-747 partner): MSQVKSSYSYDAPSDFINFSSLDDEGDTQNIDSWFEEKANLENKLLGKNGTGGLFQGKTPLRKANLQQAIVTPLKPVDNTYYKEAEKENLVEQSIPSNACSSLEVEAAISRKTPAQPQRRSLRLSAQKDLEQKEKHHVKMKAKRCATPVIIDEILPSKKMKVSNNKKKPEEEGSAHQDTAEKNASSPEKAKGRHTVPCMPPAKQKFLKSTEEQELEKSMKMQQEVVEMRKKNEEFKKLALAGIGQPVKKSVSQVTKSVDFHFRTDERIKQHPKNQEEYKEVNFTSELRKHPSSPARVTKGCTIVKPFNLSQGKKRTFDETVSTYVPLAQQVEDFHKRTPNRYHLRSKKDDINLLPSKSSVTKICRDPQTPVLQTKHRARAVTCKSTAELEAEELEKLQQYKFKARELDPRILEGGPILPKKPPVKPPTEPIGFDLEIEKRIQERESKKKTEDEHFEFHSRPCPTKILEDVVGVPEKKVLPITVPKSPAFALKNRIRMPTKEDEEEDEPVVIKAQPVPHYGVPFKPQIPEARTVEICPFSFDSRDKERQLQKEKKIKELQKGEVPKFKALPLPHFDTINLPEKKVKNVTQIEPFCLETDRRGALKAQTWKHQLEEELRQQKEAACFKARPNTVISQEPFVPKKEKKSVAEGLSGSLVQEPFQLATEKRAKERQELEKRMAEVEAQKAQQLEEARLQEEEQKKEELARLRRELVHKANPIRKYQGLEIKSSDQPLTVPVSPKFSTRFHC

Sequence of Aurora B kinase (Q6DE08 60-361 limits assumed): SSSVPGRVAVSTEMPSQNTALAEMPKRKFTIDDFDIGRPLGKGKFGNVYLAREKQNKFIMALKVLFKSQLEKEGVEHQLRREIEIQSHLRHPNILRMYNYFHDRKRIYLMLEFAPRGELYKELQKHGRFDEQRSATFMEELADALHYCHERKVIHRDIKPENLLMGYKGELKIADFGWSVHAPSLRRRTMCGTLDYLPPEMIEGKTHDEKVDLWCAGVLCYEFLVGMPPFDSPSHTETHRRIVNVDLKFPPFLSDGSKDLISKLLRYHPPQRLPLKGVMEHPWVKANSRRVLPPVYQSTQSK
Sequence of Aurora B kinase (O13024 whole entry partner): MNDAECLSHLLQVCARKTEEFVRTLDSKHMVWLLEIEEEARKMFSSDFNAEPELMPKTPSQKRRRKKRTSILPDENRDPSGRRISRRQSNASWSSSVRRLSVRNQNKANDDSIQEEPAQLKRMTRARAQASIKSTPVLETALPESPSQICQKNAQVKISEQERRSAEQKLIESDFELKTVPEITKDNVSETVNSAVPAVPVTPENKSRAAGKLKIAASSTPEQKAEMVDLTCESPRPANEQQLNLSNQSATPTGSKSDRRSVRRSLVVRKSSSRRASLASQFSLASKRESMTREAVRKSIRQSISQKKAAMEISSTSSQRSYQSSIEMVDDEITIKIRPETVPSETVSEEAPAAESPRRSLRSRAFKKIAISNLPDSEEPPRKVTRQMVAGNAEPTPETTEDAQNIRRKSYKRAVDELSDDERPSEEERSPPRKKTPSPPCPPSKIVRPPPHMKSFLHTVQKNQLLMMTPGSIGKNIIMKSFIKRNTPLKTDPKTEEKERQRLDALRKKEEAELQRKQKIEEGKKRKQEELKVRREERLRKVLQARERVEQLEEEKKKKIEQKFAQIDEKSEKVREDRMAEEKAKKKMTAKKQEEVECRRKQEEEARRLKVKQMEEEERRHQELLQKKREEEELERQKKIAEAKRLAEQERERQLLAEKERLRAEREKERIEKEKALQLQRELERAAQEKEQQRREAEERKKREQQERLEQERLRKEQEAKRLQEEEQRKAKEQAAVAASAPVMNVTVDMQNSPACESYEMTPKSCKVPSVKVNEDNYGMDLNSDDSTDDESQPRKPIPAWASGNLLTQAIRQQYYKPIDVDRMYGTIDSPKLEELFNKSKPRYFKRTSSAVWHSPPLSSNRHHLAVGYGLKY
Sequence of Cdk1/cyclinB (P06493 whole entry): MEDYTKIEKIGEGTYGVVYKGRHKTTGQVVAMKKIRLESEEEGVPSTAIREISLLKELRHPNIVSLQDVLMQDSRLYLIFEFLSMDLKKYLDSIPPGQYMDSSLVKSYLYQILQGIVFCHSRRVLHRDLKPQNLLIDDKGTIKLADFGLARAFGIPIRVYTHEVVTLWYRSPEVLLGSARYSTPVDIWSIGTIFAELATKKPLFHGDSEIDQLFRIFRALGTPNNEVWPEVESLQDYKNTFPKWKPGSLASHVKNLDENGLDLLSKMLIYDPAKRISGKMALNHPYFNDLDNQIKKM
Sequence of Cdk1/cyclinB (P14635 whole entry partner): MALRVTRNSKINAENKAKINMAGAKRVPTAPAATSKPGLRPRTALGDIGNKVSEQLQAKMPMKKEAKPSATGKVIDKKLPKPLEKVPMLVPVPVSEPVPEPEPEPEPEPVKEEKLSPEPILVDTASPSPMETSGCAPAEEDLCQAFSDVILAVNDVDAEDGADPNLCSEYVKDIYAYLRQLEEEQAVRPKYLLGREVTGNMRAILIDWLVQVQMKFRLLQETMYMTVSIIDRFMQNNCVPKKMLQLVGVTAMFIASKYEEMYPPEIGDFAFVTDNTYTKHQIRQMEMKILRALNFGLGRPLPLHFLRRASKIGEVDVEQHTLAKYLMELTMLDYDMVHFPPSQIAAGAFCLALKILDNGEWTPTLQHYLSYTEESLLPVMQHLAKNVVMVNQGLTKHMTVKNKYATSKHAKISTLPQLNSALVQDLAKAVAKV
Sequence of Cdk5/p25 (Q00535 whole entry): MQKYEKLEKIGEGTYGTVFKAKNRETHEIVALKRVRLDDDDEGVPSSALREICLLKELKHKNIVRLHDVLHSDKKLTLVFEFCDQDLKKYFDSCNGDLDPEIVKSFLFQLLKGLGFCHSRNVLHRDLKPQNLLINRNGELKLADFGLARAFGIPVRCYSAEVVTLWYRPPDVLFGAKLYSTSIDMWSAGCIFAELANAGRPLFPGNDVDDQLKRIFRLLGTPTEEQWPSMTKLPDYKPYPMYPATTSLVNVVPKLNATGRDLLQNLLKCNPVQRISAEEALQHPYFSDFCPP
Sequence of Cdk5/p25 (Q15078 2-307 partner): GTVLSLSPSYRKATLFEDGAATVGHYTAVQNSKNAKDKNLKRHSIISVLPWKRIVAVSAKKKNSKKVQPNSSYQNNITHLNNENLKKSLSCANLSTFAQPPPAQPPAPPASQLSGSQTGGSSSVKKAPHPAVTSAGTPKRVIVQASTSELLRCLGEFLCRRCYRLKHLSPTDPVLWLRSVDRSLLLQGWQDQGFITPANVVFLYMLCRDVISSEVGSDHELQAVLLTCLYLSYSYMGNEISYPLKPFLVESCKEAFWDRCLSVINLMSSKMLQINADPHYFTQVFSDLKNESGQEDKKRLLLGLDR

As a reminder, the IC50 is the point on the concentration scale where inhibition reaches its midpoint. The low end stands for greater potency, the high end for weaker potency. Take `COc1cc(/C=N/NC(=O)c2sc(N)nc2C)ccc1O` [OM137]: the half-maximal inhibitory concentration (IC50) against Aurora B kinase was 2.4 µM; against Cdk1/cyclinB, around 20 µM; against Aurora A kinase, 21.7 µM; against Cdk5/p25, around 20 µM.
